Measurements: patent US9895370B2, “Pharmaceutical composition for preventing or treating of cirrhosis of liver comprising G protein coupled receptor 119 ligand as an active ingredient” (DONGGUK UNIVERSITY INDUSTRY—ACADEMIC COOPERATION FOUNDATION, priority 2015, dated 2018)

Experiments:
[1] = system: peptidyl prolyl isomerase (Pin1); assay: Pin1 expression in LX-2; assay type: cell-based, human; conditions: FIG. 5b
Procedure: (§1) A human HSC line (LX-2, Milipore, U.S.A.) was plated in a 6-well plate, and grown to confluency in DMEM supplemented with 1% penicillin-streptomycin (Hyclone, U.S.A.) and 2% fetal bovine serum (Hyclone, U.S.A.) at 37° C. in a 5% CO2 incubator. For a further experiment, the confluent HSC line was incubated in an FBS-free medium, instead of the 2% FBS-added medium.
According to existing reports, as a core factor participating in cell proliferation by PDGF, peptidyl prolyl isomerase (Pin1) is known. Therefore, Pin1 relevance with respect to the GPR119 ligand action was evaluated.

[2] = system: mouse embryonic fibroblasts (MEFs); assay: collagen I and α-SMA protein expression in mouse embryonic fibroblasts (western blot); assay type: cell-based; conditions: FIG. 2b
Procedure: (§2) Sodium dodecylsulfate-polyacrylamide gel electrophoresis (SDS-PAGE) was performed using a gel electrophoresis device (Mighty Small SE 250, Hoefer Scientific Instruments, San Francisco) according to the method established by the inventors. A lysed cell fraction was diluted with a sample dilution buffer [63 mM Tris (pH. 6.8), 10% glycerol, 2% SDS, 0.0013% bromophenol blue, 5% β-mercaptoethanol], and subjected to electrophoresis in an electrode buffer (15 g Tris, 72 g glycerin and 5 g SDS contained in an 1 L solution) using a 8-12% gel. After electrophoresis, the gel was transferred to a nitrocellulose membrane to transfer proteins using an electrophoresis device for transfer in a transfer buffer (25 mM Tris, 192 mM glycerin, 20% v/v methanol (pH. 8.3)] at 40 mA for 3 hours. The nitrocellulose membrane was reacted with first antibodies, reacted with horseradish peroxidase-conjugated goat anti-rabbit IgG and horseradish peroxidase-conjugated goat anti-mouse IgG as secondary antibodies for 1 hour, and visualized using an ECL chemiluminescence system (Amersham, Gaithesberg, Mass.).

human HSC line LX-2 = assay: TGFβ1-inducible collagen I and TGFβ expression in LX-2; assay type: cell-based
Procedure: as §1
Total RNA ([…]) extracted from cells using Trizol and a Maxime RT PreMix Kit (iNtRON Biotechnology, Gyeonggi-do, Korea) was used to obtain cDNA. For RT-PCR, a target gene was amplified by PCR using a Maxime™ PCR PreMix Kit according to the manufacturer's instructions, and subjected to electrophoresis in a 2% agrose gel, thereby identifying the amplified PCR product.
Meanwhile, for real-time RT-qPCR, the synthesized cDNA was assessed in a CFX Connect™ Real-Time PCR Detection System (Bio-Rad Laboratories, CA, USA) instrument using a SYBR green dye (Bio-Rad). The CP value of the gene was calibrated with the CP value of S 18r gene. Also, through a melting curve analysis, specificity of the amplified PCR product was confirmed.
as §2
A critical cytokine having an influence on the induction of liver fibrosis, TGFβ1, is a potent fibrosis stimulation factor for HSCs. To examine the expression of a liver fibrosis-inducing factor which was increased when the human liver cell line LX-2, cultured by method D was treated with TGFβ1, changes in expression according to the treatment with GPR119 ligands (MBX-2982, GSK1292263) were assessed by the methods described in G and H, thereby observing the effect of the GPR119 ligands.

p300 = p300 protein and mRNA expression in LX-2; assay type: cell-based, human
Procedure: as §1, §2
Thereafter, in the present invention, the influence of the GPR119 ligand on p300 expression was observed. […] From the result, it was assumed that a decrease in the expression of the p300 protein due to the GPR119 ligand could be caused by proteasomal degradation, and therefore the expression of the p300 protein was observed using a proteasome inhibitor, which is MG132.

mouse HSCs = assay: col1A1 mRNA expression in primary cultured mouse HSCs during in vitro culture-induced activation; assay type: cell-based; conditions: treated on day 1, 3 and 5, FIG. 2a
Procedure: HSCs were isolated from a male C57BL/6 mouse, a male GPR119 WT mouse and a GPR119 KO mouse. More specifically, each mouse was anesthetized to perform an abdominal incision, a cannula was inserted into the hepatic portal vein to introduce a gas mixture of 5% CO2 and 95% 02, and then Ca^2+, Mg^2+-free Hank's balanced salt solution was injected into the cannula at 37° C. to remove blood in the liver. Afterward, a 0.1% collagenase type IV (Sigma, U.S.A.) solution was injected. The liver tissue was detached from the body and prepared in a liver cell suspension, and following centrifugation at 1000×g for 10 minutes, a precipitated cell layer was obtained by floating HSCs to isolate through a density gradient method using Nycodenz. The isolated HSCs were cultured in high glucose Dulbecco's Modified Eagle's Medium (DMEM) containing 10% fetal bovine serum, 50 U/ml penicillin and […] streptomycin at 37° C. in 5% CO2.
Total RNA ([…]) extracted from cells using Trizol and a Maxime RT PreMix Kit (iNtRON Biotechnology, Gyeonggi-do, Korea) was used to obtain cDNA. […]
Meanwhile, for real-time RT-qPCR, the synthesized cDNA was assessed in a CFX Connect™ Real-Time PCR Detection System (Bio-Rad Laboratories, CA, USA) instrument using a SYBR green dye (Bio-Rad). […]

[3] = system: AMP-activated protein kinase (AMPK); assay: AMPK activation (AMPK and ACC phosphorylation) in LX-2; assay type: cell-based, human; conditions: LX-2, time-dependent treatment; FIG. 4b
Procedure: as §1
Sodium dodecylsulfate-polyacrylamide gel electrophoresis (SDS-PAGE) was performed using a gel electrophoresis device (Mighty Small SE 250, Hoefer Scientific Instruments, San Francisco) according to the method established by the inventors. A lysed cell fraction was diluted with a sample dilution buffer [63 mM Tris (pH. 6.8), 10% glycerol, 2% SDS, 0.0013% bromophenol blue, 5% β-mercaptoethanol], and subjected to electrophoresis in an electrode buffer (15 g Tris, 72 g glycerin and 5 g SDS contained in an 1 L solution) using a 8-12% gel. […]

HSC line LX-2 = assay: PDGF-induced HSC proliferation in LX-2; assay type: cell-based, human; conditions: FIG. 5a
Procedure: as §1

[4] = LX-2 treated with TGFβ1, FIGS. 2c, 2d
[5] = LX-2 treated with ligand alone, FIG. 4h

CCc1cnc(N2CCC(c3nc(COc4ccc(-n5cnnn5)cc4)cs3)CC2)nc1 [MBX-2982, 4-((4-(1H-tetrazol-1-yl)phenoxy)methyl)-2-(1-(5-ethylpyrimidin-2-yl)piperidin-4-yl)thiazole]
Pin1 expression [1]: time-dependently reduced
collagen I expression [2]: inhibited
α-SMA expression [2]: inhibited
expression of TGFβ1-inducible liver fibrosis inducing factors (collagen I, TGFβ) with compound C / DN-AMPK (human HSC line LX-2; AMPK inhibitor compound C treated, DN-AMPK transduced, FIG. 4c): inhibitory effect
inhibitory effect on collagen I and TGFβ expression under overexpression of Pin1 (human HSC line LX-2; LX-2 transduced with Pin1 adenovirus, TGFβ1, FIG. 5c): reversed
expression of TGFβ1-inducible TGFβ (human HSC line LX-2; [4]): inhibited
expression of TGFβ1-inducible collagen I (human HSC line LX-2; [4]): inhibited
expression of the p300 protein (p300; [5]): reduced depending on the concentration
mRNA expression of p300 (p300; [5]): no influence
expression of the p300 protein decreased by ligand, with proteasome inhibitor MG132 (p300; with MG132 treatment, FIG. 4i): recovered
mRNA expression of collagen col1A1 (mouse HSCs): considerably inhibited
AMPK activation (AMPK and ACC phosphorylation) [3]: highly activated
HSC proliferation induced by PDGF (HSC line LX-2): inhibited
